Data taken from paper PMC11484861 (Nature Communications, 2024).
Ends that are not written are not given here.

Assays:
[1] = system: SARS-CoV-2 M protein level; assay type: cell-based, human
[2] = system: TOMM22 level; assay type: cell-based, human; settings: for effects of SQSTM1 on TOMM22 degradation: PDPK1-KO HEK293T, even in the presence of PDPK1, Mdivi-1 2.5 μM, CQ 50 μM, wortmannin 5 μM, 4 h (Fig 2G)
[3] = system: binding of SQSTM1 to M; assay type: cell-based, human
[4] = system: binding of SQSTM1 to TOMM22; assay type: cell-based, human
[5] = system: MAVS level; assay type: cell-based, human
[6] = system: phosphorylation of SQSTM1 at T138; assay type: cell-based, human
[7] = system: mitophagy; assay type: cell-based, human
[8] = system: IFNB1 mRNA expression; assay type: cell-based, human
[9] = system: IFNB1 mRNA expression; assay type: cell-based, human; remark: listed apart in the source
[10] = system: IFNB1 mRNA expression; parameters: species or system mice; settings: mouse, in vivo
[11] = system: PEDV; assay type: cell-based
[12] = system: PEDV; assay type: cell-based; remark: listed apart in the source
[13] = molecular target: GFP-SQSTM1 (Homo sapiens, UniProt Q13501); test: biochemical; assay type: binding
[14] = system: IFNB1 mRNA expression; assay type: cell-based, human; settings: HEK293T, presence vs absence of poly (I:C); P = 0.001 (Fig 6A)
[15] = molecular target: GFP-PDPK1 (human (cloned from HEK293T cells)) (UniProt O15530); test: MST
GFP-PDPK1 (human (cloned from HEK293T cells)), sequence (O15530 whole entry): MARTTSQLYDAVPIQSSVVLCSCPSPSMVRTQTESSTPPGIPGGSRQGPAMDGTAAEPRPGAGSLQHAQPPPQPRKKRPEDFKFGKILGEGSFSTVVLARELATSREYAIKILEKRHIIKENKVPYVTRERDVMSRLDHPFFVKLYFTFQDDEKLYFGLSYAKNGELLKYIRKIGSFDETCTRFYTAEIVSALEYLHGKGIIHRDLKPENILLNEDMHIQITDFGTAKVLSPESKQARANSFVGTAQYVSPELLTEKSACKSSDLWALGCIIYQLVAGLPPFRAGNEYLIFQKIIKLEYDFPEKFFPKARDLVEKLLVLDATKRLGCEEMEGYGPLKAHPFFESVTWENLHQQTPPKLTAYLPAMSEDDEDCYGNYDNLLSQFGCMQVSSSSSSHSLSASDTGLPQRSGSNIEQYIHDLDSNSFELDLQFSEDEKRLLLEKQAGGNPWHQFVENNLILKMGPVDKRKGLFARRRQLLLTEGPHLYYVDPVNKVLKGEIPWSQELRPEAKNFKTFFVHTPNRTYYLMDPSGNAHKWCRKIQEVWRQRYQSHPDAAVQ

COC[C@H]1OC(=O)c2coc3c2[C@@]1(C)C1=C(C3=O)[C@@H]2CCC(=O)[C@@]2(C)C[C@H]1OC(C)=O [wortmannin]
effects of SQSTM1 on M degradation [1]: completely abolished
effects of SQSTM1 on TOMM22 degradation [2]: completely abolished

NCC(=O)Nc1ccc(-n2nc(C(F)(F)F)cc2-c2ccc3c(ccc4ccccc43)c2)cc1 [OSU-03012]
binding of SQSTM1 to M [3]: increased
binding of SQSTM1 to TOMM22 [4]: decreased
M levels [1]: further decreased
levels of TOMM22 decreased by PM or M expression ([2]; Fig 5B): restored
TOMM22 levels ([2]; SQSTM1-KO cells with SQSTM1 expression, compared with control group (Fig S2J)): restored
levels of MAVS decreased by PM or M expression [5]: restored
M/PM-induced phosphorylation of SQSTM1 at T138 [6]: inhibited
phosphorylation of SQSTM1 at T138 [6]: blocked
decrease in GFP fluorescence of RFP-GFP-Mito caused by SQSTM1 expression [7]: reversed the decrease
effect of M on the shift in the green signal to a red signal (RFP-GFP-Mito, mitophagy) [7]: reversed
IFNB1 expression during PEDV infection in cells [8]: restored
IFNB1 expression during VSV-M infection in cells [9]: restored
IFNB1 expression in lungs of VSV-M-infected mice [10]: restored
PEDV M protein expression during PEDV infection [11]: reduced
PEDV replication / viral titer (TCID50) in cells [12]: attenuated

Mdivi-1
effects of SQSTM1 on M degradation [1]: not M degradation
effects of SQSTM1 on TOMM22 degradation [2]: only blocked

SMWSFNPETN [M-CD]
Kd [13]: 115 ± 28 nM

CCN(CC)CCCC(C)Nc1ccnc2cc(Cl)ccc12 (stereo not drawn) [CQ, chloroquine]
effects of SQSTM1 on M degradation [1]: completely abolished
effects of SQSTM1 on TOMM22 degradation [2]: completely abolished

poly (I:C)
IFNB1 mRNA expression [14]: substantially increased

unlabeled M-β3-5 (MST ligand) (from UniProt P0DTC5 1-222) (domain or fragment)
Kd [15]: 71 nM
